Results from ChEMBL document CHEMBL1201862, “PubChem BioAssay data set” (2004).
Active and inactive are the calls of the source.

Key:
Cytochrome P450 2D6 = Cytochrome P450 2D6 (Homo sapiens, UniProt P10635); test: qHTS Assay for Inhibitors and Substrates of Cytochrome P450 2D6. [Related pubchem assays: 410 ]; format: ADME; details: read-out: Potency
[1] = target: Lysosomal acid glucosylceramidase (Homo sapiens, UniProt P04062); test: Dose response cell-based high throughput screening assay to identify enhancers of beta-glucosidase activity. [Related pubchem assays: 784 ]; format: functional
[2] = target: T1, Long-chain-fatty-acid--AMP ligase FadD28 (Mycobacterium tuberculosis, UniProt P9WQ59); test: Fluorescence polarization aasay to screen for inhibitors that compete for the binding of FadD28 to a bisubstrate Measured in Biochemical System Using Plate Reader - 2147-01_Inhibitor_Dose_CherryPick_Activity.; format: functional, Mycobacterium tuberculosis H37Rv
T1 sequence (P9WQ59 whole entry): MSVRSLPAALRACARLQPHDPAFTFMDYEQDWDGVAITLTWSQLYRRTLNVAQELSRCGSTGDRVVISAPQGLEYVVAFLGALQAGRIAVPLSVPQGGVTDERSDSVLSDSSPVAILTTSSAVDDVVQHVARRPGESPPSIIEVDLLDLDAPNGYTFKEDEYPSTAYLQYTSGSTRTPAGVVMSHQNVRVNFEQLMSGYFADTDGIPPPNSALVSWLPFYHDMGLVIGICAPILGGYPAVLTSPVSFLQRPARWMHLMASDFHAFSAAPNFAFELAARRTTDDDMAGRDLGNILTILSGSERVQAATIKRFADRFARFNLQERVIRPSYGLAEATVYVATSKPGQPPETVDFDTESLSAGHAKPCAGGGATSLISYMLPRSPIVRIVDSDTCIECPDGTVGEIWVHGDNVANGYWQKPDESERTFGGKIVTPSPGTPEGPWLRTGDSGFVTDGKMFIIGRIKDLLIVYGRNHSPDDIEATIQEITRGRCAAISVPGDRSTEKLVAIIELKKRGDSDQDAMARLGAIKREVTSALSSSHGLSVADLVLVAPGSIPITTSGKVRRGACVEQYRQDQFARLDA

[3] = HEp-2 cell cytotoxicity, dose response, cytotoxicity control for RSV inhibitor project, HTS (AID 2410); format: functional; details: human respiratory syncytial virus
Genome polyprotein = Genome polyprotein (dengue virus type 2, UniProt P29990); test: Dengue-2 NS5 methyltransferase inhibitors, primary screen, biochemical, confirmation dose response (AID 588689); format: functional
[4] = HIV-1 Env-mediated cell fusion inhibitors, dose response, CCR5-tropic Env (AID 2279); format: functional
[5] = target: FAD-linked sulfhydryl oxidase ALR (Homo sapiens, UniProt P55789); test: inhibitors of human ALR sulfhydryl oxidase, dose response, biochemical, H2O2 detection, luminescence, cherry-pick (AID 493248)
[6] = Luminescence Cell-Based Dose Confirmation HTS to Identify Inhibitors of Polyadenylation.; format: functional
[7] = polyadenylation inhibitors in yeast reporter, dose response, luminescence, S. cerevisiae SKY197-pL101 (AID 2525); format: functional, cell-based
[8] = target: T2, Neuropeptide Y receptor type 2 (Homo sapiens, UniProt P49146); test: Fluorescence-based counterscreen for agonists of NPY-Y1: cell-based high-throughput dose response assay for agonists of NPY-Y2.; format: functional
T2 sequence (P49146 whole entry): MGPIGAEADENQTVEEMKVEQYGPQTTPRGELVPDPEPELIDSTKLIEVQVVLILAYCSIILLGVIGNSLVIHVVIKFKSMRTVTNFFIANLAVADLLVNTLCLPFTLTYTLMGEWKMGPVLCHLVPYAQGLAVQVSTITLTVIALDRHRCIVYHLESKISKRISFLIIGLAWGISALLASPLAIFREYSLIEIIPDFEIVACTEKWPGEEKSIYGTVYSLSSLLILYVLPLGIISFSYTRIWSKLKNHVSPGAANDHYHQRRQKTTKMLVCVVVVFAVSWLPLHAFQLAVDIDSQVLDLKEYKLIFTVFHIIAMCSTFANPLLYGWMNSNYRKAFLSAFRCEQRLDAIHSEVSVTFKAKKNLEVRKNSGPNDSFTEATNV

[9] = target: T3, Neuropeptide Y receptor type 1 (Homo sapiens, UniProt P25929); test: Fluorescence-based dose response cell-based high-throughput screening assay for agonists of NPY-Y1. [Related pubchem assays: 1697 (Screening assay (NPY-Y1 agonists).), 1359 (Screening assay (NPY-Y2 potentiators or agonists).), 1304 (Screening assay (NPY-Y1 potentiators or agonists).), 1704 (Screening assay (CNGC inhibitors).), 1791 (Summary AID.)]; format: functional
T3 sequence (P25929 whole entry): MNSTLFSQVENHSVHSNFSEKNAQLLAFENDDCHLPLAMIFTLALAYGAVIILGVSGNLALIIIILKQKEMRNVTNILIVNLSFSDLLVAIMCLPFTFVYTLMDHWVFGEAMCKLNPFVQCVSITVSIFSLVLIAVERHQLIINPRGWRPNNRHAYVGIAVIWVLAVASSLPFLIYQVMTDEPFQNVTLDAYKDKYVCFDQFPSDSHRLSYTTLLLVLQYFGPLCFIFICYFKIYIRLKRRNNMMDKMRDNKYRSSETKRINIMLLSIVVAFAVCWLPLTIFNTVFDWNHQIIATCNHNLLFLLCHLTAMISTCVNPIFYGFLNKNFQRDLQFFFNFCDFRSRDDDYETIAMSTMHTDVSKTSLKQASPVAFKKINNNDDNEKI

HEK293 = test: Fluorescence-based counterscreen for potentiators or agonists of NPY-Y1: cell-based high-throughput dose response assay for inhibitors of cyclic nucleotide gated ion channel (CNGC) activity. In this assay, the parental HEK293 cell line transfected with a cyclic-nucleotide gated ion channel (CNGC)-based cAMP sensor is used to measure inhibition of isoproterenol-induced CNGC …; format: functional; details: Homo sapiens
INS1 = test: beta cell apoptosis inhibitors, cytokine rescue, dose response, luminescence, retest (AID 449756); format: functional, cell-based; details: Rattus norvegicus;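 further: cell death triggered by IL-1 beta plus TNF-alpha plus IFN-gamma mixture; protective hits raise ATP signal compared with cytokine alone wells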
Vero = test: cells; format: functional; details: Chlorocebus sabaeus
Beta-galactosidase = Beta-galactosidase (Escherichia coli, UniProt Q8VNN2); test: Dose response counterscreen for EBI2 assay utilizing the enzyme, b-galactosidase.; format: functional
[10] = Luminescence Cell-Based Dose Retest to Confirm Inhibitors of Cancer Stem Cells. [Related pubchem assays (depositor defined):AID2717, AID2721]; format: functional; details: Homo sapiens

Chain of Lysosomal acid glucosylceramidase (P04062 whole entry): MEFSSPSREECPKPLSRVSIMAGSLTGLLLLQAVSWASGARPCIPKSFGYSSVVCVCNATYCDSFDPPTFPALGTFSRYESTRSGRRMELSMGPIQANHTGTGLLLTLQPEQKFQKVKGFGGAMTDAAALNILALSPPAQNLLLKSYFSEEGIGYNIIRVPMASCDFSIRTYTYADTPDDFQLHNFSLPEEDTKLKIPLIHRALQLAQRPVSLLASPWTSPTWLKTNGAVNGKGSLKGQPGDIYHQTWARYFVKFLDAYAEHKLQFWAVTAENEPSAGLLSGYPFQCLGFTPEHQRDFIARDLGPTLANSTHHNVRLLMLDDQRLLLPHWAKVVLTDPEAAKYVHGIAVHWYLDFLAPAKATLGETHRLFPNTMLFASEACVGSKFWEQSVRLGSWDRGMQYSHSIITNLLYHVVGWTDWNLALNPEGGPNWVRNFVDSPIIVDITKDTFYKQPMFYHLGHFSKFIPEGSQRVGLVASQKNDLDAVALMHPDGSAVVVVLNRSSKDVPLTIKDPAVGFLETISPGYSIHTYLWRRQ
Chain of Beta-galactosidase (Q8VNN2 whole entry): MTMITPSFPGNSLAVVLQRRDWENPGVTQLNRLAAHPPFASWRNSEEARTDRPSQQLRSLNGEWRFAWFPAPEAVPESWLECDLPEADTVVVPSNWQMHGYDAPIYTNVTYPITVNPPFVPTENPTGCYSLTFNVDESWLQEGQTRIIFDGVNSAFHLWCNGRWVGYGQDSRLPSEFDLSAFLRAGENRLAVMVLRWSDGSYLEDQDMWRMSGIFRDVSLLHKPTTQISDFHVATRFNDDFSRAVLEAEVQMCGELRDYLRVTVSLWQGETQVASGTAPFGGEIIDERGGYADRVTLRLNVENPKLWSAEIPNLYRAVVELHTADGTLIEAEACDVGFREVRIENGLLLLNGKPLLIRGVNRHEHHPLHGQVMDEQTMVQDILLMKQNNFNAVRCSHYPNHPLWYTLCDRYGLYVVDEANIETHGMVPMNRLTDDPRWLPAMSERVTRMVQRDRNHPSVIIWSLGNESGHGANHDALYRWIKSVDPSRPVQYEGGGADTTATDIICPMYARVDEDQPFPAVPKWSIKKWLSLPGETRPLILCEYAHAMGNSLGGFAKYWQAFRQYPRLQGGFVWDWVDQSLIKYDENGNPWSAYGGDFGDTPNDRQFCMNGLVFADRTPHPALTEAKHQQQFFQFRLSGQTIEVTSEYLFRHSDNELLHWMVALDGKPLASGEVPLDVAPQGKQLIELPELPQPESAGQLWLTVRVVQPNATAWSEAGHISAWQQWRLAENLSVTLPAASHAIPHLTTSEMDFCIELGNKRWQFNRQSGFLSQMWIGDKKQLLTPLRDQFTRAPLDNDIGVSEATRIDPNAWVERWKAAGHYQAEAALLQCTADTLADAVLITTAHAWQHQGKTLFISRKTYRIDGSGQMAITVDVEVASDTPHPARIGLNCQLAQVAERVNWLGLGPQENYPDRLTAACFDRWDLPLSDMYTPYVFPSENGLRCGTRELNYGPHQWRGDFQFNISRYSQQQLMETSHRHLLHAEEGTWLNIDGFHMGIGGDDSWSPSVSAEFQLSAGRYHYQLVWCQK
Chain of Genome polyprotein (P29990 2492-3391 limits assumed): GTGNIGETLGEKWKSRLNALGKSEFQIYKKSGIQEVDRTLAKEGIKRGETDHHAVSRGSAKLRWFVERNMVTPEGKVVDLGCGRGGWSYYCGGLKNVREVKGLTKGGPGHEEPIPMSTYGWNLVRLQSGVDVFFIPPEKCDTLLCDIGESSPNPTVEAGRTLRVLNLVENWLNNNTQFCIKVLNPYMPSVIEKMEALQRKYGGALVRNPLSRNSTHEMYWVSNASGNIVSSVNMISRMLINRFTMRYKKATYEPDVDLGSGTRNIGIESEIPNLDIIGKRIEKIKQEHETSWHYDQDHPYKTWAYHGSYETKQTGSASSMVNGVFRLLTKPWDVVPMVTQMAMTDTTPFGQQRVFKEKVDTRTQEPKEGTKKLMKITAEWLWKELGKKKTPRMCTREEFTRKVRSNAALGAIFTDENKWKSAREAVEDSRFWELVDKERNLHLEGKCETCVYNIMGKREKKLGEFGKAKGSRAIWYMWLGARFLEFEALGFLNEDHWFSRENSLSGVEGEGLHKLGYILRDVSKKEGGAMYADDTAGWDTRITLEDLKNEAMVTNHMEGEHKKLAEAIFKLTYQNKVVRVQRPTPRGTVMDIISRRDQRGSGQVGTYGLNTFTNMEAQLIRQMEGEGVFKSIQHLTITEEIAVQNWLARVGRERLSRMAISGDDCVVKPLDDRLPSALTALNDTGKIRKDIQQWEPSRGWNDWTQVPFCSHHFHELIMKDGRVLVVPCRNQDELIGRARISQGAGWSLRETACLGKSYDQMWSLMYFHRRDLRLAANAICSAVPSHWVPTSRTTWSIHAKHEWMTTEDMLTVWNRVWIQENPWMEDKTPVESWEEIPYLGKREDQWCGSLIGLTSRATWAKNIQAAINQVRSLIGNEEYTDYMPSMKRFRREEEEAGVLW
Chain of FAD-linked sulfhydryl oxidase ALR (P55789 whole entry): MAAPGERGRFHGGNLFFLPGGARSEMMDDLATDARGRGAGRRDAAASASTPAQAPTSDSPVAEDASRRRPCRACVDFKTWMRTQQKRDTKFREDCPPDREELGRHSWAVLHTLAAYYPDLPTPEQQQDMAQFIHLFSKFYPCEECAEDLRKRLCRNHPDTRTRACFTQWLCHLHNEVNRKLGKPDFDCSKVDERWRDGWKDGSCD
Chain of Cytochrome P450 2D6 (P10635 whole entry): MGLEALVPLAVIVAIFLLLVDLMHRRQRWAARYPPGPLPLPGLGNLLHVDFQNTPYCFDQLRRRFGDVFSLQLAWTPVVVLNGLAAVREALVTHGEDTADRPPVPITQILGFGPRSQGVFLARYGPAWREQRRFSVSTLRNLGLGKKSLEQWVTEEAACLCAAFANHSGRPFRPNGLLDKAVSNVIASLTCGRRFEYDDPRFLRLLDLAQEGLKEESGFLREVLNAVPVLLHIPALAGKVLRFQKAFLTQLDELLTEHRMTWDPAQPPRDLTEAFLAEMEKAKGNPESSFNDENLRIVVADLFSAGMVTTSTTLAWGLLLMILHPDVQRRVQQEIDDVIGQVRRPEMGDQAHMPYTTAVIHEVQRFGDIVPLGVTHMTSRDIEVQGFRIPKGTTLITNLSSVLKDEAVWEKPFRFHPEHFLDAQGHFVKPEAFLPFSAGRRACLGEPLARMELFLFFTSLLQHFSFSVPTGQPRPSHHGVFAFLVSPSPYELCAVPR

COc1ccc([C@@H]2CC(=O)c3c(O)cc(O)cc3O2)cc1O [HESPERETIN]
AC50 (Cytochrome P450 2D6): 39.8 µM (inconclusive)

CC(CS(=O)(=O)c1cccc2cccnc12)N1CCCCC1 (stereo unspecified)
EC50 [1]: > 50 µM (not active)

O=C(O)c1cc(N/N=C/c2ccc(-c3ccccc3)cc2)ccc1Cl
AC50 [2]: 18.4 µM (active) | CC50 [3]: 31.1 µM (active) | IC50 (Genome polyprotein): 61.5 µM (active) | IC50 [4]: 11 µM (active) | AC50 [5]: 1.83 µM (active)

CC(=O)c1ccc(Sc2ccccc2)c([N+](=O)[O-])c1
EC50 [6]: 11.4 µM (active) | EC50 [7]: 2.88 µM (active)

O=C(c1cc(-c2cccc(O)c2)on1)N1CCN(C(c2ccccc2)c2ccccc2)CC1
EC50 [8]: > 35.4 µM (not active) | EC50 [9]: > 35.4 µM (not active) | IC50 (HEK293): > 35.4 µM (not active) | AC50 (INS1): 9.7 µM (active) | CC50 (Vero): 15.4 µM (active) | IC50 (Beta-galactosidase): 151 µM (inactive) | AC50 [10]: 1.58 µM (active)
